Source: patent publication US20070265223A1, “COMPOSITIONS AND METHODS OF ENHANCING SURVIVABILITY AND REDUCING INJURY OF CELLS, TISSUES, ORGANS, AND ORGANISMS UNDER HYPOXIC OR ISCHEMIC CONDITIONS” (IKARIA, INC., priority 2006, published 2007)
Where two headings read alike, the source gives them in different places.

Legend:
[1] = system: mice subjected to lethal hypoxia; experiment: Protection of mice from lethal hypoxia using 5′-AMP; assay type: in vivo, mouse (C57BI/6); conditions: for survival of exposure to hypoxia: 4% oxygen for 60 min; for time to full recovery from lowest temperature: after return to ambient air
Description: The ability of 5′-AMP to protect mice from lethal hypoxia was determined by comparing the effects of hypoxia on mice treated with 5′-AMP to the effects of hypoxia on untreated mice. Male C57BI/6 mice, 5-6 weeks old, with implanted jugular vein catheter (Taconic) were implanted dorsally with a subcutaneous RFID temperature sensor (IPTT-300, Bio Medic Data Systems, Inc.) and allowed to recover for at least 24 hours. Adenosine-5′-monophosphate (AMP sodium salt, Sigma) was dissolved in water, the osmolarity was adjusted with sodium chloride to 300 mOsm, the pH was adjusted with NaOH to 6.3, and the solution was filtered through a 0.2 um filter. The final AMP concentration was 40 mM. Mice were placed into a tall glass-bottom jar with opaque walls and infused via the jugular vein at a rate of 0.8 ul/min for 59.5 min followed by 1.6 ul/min for 12.8 min (total AMP dose=145 umol/kg) with a syringe pump (Harvard Apparatus), until their subcutaneous temperature had decreased to about 33° C. The infusion was stopped, and the mice were exposed for 60 min to an atmosphere of 4% oxygen constructed by mixing air and nitrogen using mass flow controllers (Sierra Instruments). During the infusion and exposure to hypoxia, the animals' subcutaneous temperature was read every 3-5 min and their vital signs were monitored. At the end if the hypoxic period, the animals were removed to ambient air. Temperature measurements were continued until the animals' temperature had returned to the normal range (FIGS. 1A and 1B). A control mouse was exposed to hypoxia, and its time of death was recorded.
The same procedure described above was repeated under conditions wherein the mouse treated with 5′AMP received a constant infusion of 40 mM AMP at 1.6 ul/min for 26.5 min (total AMP dose of 69 umol/kg) until its subcutaneous temperature had reached 33 C. In this case, the AMP-infused mouse (MJVC83) survived exposure to hypoxia for 60 min and recovered fully from the lowest temperature of 24° C. within 1 hour. The control mouse (MJVC84) died after 8.5 min of hypoxia with a final temperature of 32.7° C. (FIGS. 2A and 2B).

[2] = treatment of animals; Zhang et al., Nature 2006; cited from earlier work
[3] = system: rats subjected to lethal hypoxia; experiment: Protection of rats from lethal hypoxia using 5′-AMP; assay type: in vivo, rat (Sprague Dawley); conditions: rat RJVC35; 40 mM 5′AMP bolus 258 ul then 31.7 ul/min for 66.4 min, total 270 uM/kg; saline control 8.6 min
[4] = system: mice subjected to lethal hypoxia; experiment: Protection of mice from lethal hypoxia using adenosine; assay type: in vivo, mouse (C57BI/6); conditions: two mice
Description: The ability of adenosine to protect mice from lethal hypoxia was determined by comparing the effects of hypoxia on mice treated with adenosine to the effects of hypoxia on untreated mice. Male C57BI/6 mice, 5-8 weeks old, with implanted jugular vein catheter (Taconic) were implanted dorsally with a subcutaneous RFID temperature sensor (PTT-300, Bio Medic Data Systems, Inc.) and allowed to recover for at least 24 hours after implantation. Mice were injected with adenosine (19 mM, 3.2 μl/min total dose approximately 27 mg/kg) and temperature was monitored via the temperature sensor until subcutaneous body temperature had decreased to about 33° C. The infusion was stopped, and these mice, as well as control mice injected with sodium chloride) were exposed for 60 min to an atmosphere of 4% oxygen constructed by mixing air and nitrogen using mass flow controllers (Sierra Instruments). During the infusion and exposure to hypoxia, the animals' subcutaneous temperature was monitored every 3-5 min and their vital signs were monitored. In parallel, a control mouse was injected with vehicle (sodium chloride; NaCI; 137 mM, 3.2 μl/min, total dose of NaCl administered was approximately 41 mg/kg) and put into a hypoxic atmosphere (4% O2) at the same time as the mouse injected with adenosine, and its behavior and body temperature monitored. Following 60 min in hypoxic conditions, the mice (MJVC104 and MJVC 108) treated with adenosine were transferred into room air, and recovery of the mice was recorded by observing behavior and monitoring body temperature. […] The control mice (MJVC105 and MJVC107) died after approximately six minutes in the hypoxic atmosphere (4% O2; FIGS. 4B and 5B).

[5] = cited from earlier work
[6] = adenosine approximately 27 mg/kg, after 60 min 4% O2

Nc1ncnc2c1ncn2[C@@H]1O[C@H](COP(=O)(O)O)[C@@H](O)[C@H]1O [5′-AMP, Adenosine-5′-monophosphate]
survival of exposure to hypoxia ([1]; mouse MJVC80, 40 mM AMP jugular vein infusion 0.8 ul/min 59.5 min then 1.6 ul/min 12.8 min, total 145 umol/kg): survived
time to full recovery from lowest temperature ([1]; mouse MJVC80, total AMP dose 145 umol/kg): ≤ 1 h
survival of exposure to hypoxia ([1]; mouse MJVC83, constant infusion 40 mM AMP 1.6 ul/min 26.5 min, total 69 umol/kg): survived
time to full recovery from lowest temperature ([1]; mouse MJVC83, total AMP dose 69 umol/kg): ≤ 1 h
induction of torpor (depressed body temperature, mClps expression) [2]: induced torpor
time of survival in 3.5% oxygen [3]: 38.2 min

Nc1ncnc2c1ncn2[C@@H]1O[C@H](CO)[C@@H](O)[C@H]1O [adenosine]
survival of hypoxic atmosphere ([4]; adenosine 19 mM, 3.2 μl/min, total approximately 27 mg/kg, 4% O2 for 60 minutes): survived
behavioral abnormalities the following day [4, 6]: No behavioral abnormalities
recovery after return to room air [4, 6]: recovered completely

[C-]#[O+] [carbon monoxide]
symptoms on exposure ([5]; 50 ppm): no symptoms
symptoms on exposure ([5]; 200 ppm, within two-three hours): slight headache
symptoms on exposure ([5]; 400 ppm, within one to two hours): frontal headache
symptoms on exposure ([5]; 800 ppm, within 45 minutes): dizziness, nausea, and/or convulsions
lethality on exposure ([5]; around 1000 ppm, exposure for more than around 1-2 minutes, an organism): expire
